Key:
[1] = molecular target: T1, human 5-hydroxytryptamine-2C (h5-HT2C) receptor (Homo sapiens, UniProt P28335); experiment: [125I]DOI binding to membranes of CHO cells expressing the human 5-HT2C receptor; settings: [125I]DOI radioligand, CHO cell membranes, room temperature 60 min; read-out: 5-HT2C Affinity Ki
T1 construct: expressed in transfected cells; host or cells: CHO (Chinese Hamster Ovary) cells; membranes
T1 sequence (P28335 33-458): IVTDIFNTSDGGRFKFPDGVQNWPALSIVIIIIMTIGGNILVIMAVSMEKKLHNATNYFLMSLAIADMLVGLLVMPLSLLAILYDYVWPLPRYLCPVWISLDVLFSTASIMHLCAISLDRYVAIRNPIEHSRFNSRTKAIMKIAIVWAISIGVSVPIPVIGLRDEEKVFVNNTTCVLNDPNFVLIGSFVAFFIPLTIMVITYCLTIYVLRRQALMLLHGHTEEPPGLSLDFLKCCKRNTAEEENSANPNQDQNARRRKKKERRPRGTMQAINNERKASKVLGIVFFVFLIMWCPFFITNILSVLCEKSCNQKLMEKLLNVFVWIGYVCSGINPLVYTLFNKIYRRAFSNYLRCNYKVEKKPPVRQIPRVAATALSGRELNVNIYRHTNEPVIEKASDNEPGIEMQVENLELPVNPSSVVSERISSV

human 5-HT2C receptor = molecular target: T2, human 5-HT2C receptor (Homo sapiens, UniProt P28335); experiment: 5-HT2C receptor-stimulated calcium mobilization (FLIPR) in CHO cells; type: cell-based; settings: for Emax: CHO, read-out: 5-HT2C Function Emax (%); for Emax / 5-HT2C Function Emax (%): percentage of the response observed with a maximally effective concentration of 5-HT; for EC50: calcium mobilization, CHO cells stably expressing human 5-HT2C, read-out: 5-HT2C Function EC50;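 on all read-outs here: Fluo-3-AM fluorescence read on FLIPR every 1 s, agonist added after 10 baseline reads, response taken as peak minus lowest raw fluorescence count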
T2 sequence (P28335 33-458): T1 sequence (P28335 33-458)

SMILES: CNCC1Cc2cccc(-c3ccccc3Cl)c2O1 (single isomer, unassigned; (+)) [Example 410, (+)-N-methyl-1-[7-(2-chlorophenyl)-2,3-dihydro-1-benzofuran-2-yl]methanamine]
- Ki [1]: 0.08 nM
- Emax (human 5-HT2C receptor): 90%
- EC50 (human 5-HT2C receptor): 0.05 nM

SMILES: NCC1Cc2cccc(-c3ccc(Cl)cc3Cl)c2O1 (single isomer, unassigned; (+)) [Example 150, (+)-1-[7-(2,4-dichlorophenyl)-2,3-dihydro-1-benzofuran-2-yl]methanamine]
- Ki [1]: 4.1 nM
- EC50 (human 5-HT2C receptor): 74 nM
- 5-HT2C Function Emax (%) (human 5-HT2C receptor): 100%

SMILES: CNCC1Cc2cccc(-c3ccc(F)cc3)c2O1 (racemic) [Example 419, (±)-[(N-methyl-1-[7-(4-fluorophenyl)-2,3-dihydro-1-benzofuran-2-yl]methanamine]
- Ki [1]: 3.8 nM
- Emax (human 5-HT2C receptor): 80%
- EC50 (human 5-HT2C receptor): 1360 nM

SMILES: CNCC1Cc2cc(F)cc(-c3ccccc3Cl)c2O1 (racemic) [Example 439, (±)-{[5-fluoro-7-(2-chlorophenyl)-2,3-dihydro-1-benzofuran-2-yl]methyl}methylamine]
- Ki [1]: 0.45 nM
- Emax (human 5-HT2C receptor): 90%
- EC50 (human 5-HT2C receptor): 6 nM

SMILES: NCC1Cc2cc(F)cc(-c3cc(Cl)ccc3Cl)c2O1 (racemic) [Example 221, (±)-{[7-(2,5-dichlorophenyl)-5-fluoro-2,3-dihydro-1-benzofuran-2-yl]methyl}amine]
- Ki [1]: 1.4 nM
- Emax (human 5-HT2C receptor): 90%
- EC50 (human 5-HT2C receptor): 2 nM

SMILES: CNCC1Cc2cc(C)cc(-c3c(Cl)cccc3Cl)c2O1 (racemic) [Example 490, (±)-{[7-(2,6-dichlorophenyl)-5-methyl-2,3-dihydro-1-benzofuran-2-yl]methyl}methylamine]
- Ki [1]: 1 nM
- Emax (human 5-HT2C receptor): 100%
- EC50 (human 5-HT2C receptor): 6 nM

SMILES: Cc1cc(Cl)ccc1-c1cccc2c1OC(CN)C2 (single isomer, unassigned; (-)) [Example 159, (−)-{[7-(4-chloro-2-methylphenyl)-2,3-dihydro-1-benzofuran-2-yl]methyl}amine]
- Ki [1]: 12 nM
- EC50 (human 5-HT2C receptor): 636 nM
- 5-HT2C Function Emax (%) (human 5-HT2C receptor): 80%

SMILES: CNCC1Cc2cc(OC)cc(-c3cccc(C)c3C)c2O1 (racemic) [Example 496, (±)-{[7-(2,3-dimethylphenyl)-5-methoxy-2,3-dihydro-1-benzofuran-2-yl]methyl}methylamine]
- Ki [1]: 46 nM
- Emax (human 5-HT2C receptor): 60%
- EC50 (human 5-HT2C receptor): 510 nM

SMILES: Cc1c(Cl)cc(C(C)C)c2c1CC(CN)O2 (single isomer, unassigned; (-)) [Example 22, (−)-1-(5-chloro-7-isopropyl-4-methyl-2,3-dihydro-1-benzofuran-2-yl)methanamine]
- Ki [1]: 5 nM
- Emax (human 5-HT2C receptor): 90%
- EC50 (human 5-HT2C receptor): 25 nM

SMILES: COc1cc2c(c(-c3cc(C)ccc3C)c1)OC(CN)C2 (racemic) [Example 370, (±)-{[7-(2,5-dimethylphenyl)-5-methoxy-2,3-dihydro-1-benzofuran-2-yl]methyl}amine]
- Ki [1]: 30 nM
- Emax (human 5-HT2C receptor): 80%
- EC50 (human 5-HT2C receptor): 190 nM

SMILES: CC(C)c1ccccc1-c1cccc2c1OC(CN)C2 (racemic) [Example 61, (±)-[7-(2-isopropylphenyl)-2,3-dihydro-1-benzofuran-2-yl]methylamine]
- Ki [1]: 37 nM
- Emax (human 5-HT2C receptor): 30%
- EC50 (human 5-HT2C receptor): 1090 nM

SMILES: NCC1Cc2cccc(-c3ccc(F)cc3F)c2O1 (single isomer, unassigned; (-)) [Example 148, (−)-1-[7-(2,4-difluorophenyl)-2,3-dihydro-1-benzofuran-2-yl]methanamine]
- Ki [1]: 12 nM
- EC50 (human 5-HT2C receptor): 290 nM
- 5-HT2C Function Emax (%) (human 5-HT2C receptor): 70%

SMILES: NCC1Cc2cccc(-c3ccc(C(F)(F)F)cc3)c2O1 (single isomer, unassigned; (-)) [Example 138, (−)-1-{7-[4-(trifluoromethyl)phenyl]-2,3-dihydro-1-benzofuran-2-yl}methanamine]
- Ki [1]: 7.4 nM
- EC50 (human 5-HT2C receptor): 3800 nM
- 5-HT2C Function Emax (%) (human 5-HT2C receptor): 60%

SMILES: Cc1ccc(C)c(-c2cccc3c2OC(CN)C3)c1 (racemic) [Example 161, (±)-{[7-(2,5-dimethylphenyl)-2,3-dihydro-1-benzofuran-2-yl]methyl}amine]
- Ki [1]: 8 nM
- Emax (human 5-HT2C receptor): 90%
- EC50 (human 5-HT2C receptor): 32 nM

SMILES: COc1ccc(-c2cccc3c2OC(CN)C3)cc1 (racemic) [Example 79, (±)-1-[7-(4-methoxyphenyl)-2,3-dihydro-1-benzofuran-2-yl]methanamine]
- Ki [1]: 2 nM
- Emax (human 5-HT2C receptor): 95%
- EC50 (human 5-HT2C receptor): 24 nM

SMILES: CNCC1Cc2cc(C(F)(F)F)cc(-c3ccc(OC)cc3OC)c2O1 (racemic) [Example 526, (±)-N-methyl-1-[7-(2,4-dimethoxyphenyl)-5-(trifluoromethyl)-2,3-dihydro-1-benzofuran-2-yl]methanamine]
- Ki [1]: 25 nM
- Emax (human 5-HT2C receptor): 90%
- EC50 (human 5-HT2C receptor): 50 nM

SMILES: CC(C)c1cccc2c1OC(CN)C2 (racemic) [Example 18, (±)-(7-isopropyl-2,3-dihydro-1-benzofuran-2-yl)methylamine]
- Ki [1]: 5 nM
- Emax (human 5-HT2C receptor): 100%
- EC50 (human 5-HT2C receptor): 9.6 nM

SMILES: NCC1Cc2cccc(C3CCCC3)c2O1 (single isomer, unassigned; (+)) [Example 10, (+)-(7-cyclopentyl-2,3-dihydro-1-benzofuran-2-yl)methylamine]
- Ki [1]: 42 nM
- EC50 (human 5-HT2C receptor): 179 nM
- 5-HT2C Function Emax (%) (human 5-HT2C receptor): 60%

SMILES: Cc1cc2c(c(-c3ccccc3Cl)c1)OC(CN)C2 (racemic) [Example 286, (±)-{[7-(2-chlorophenyl)-5-methyl-2,3-dihydro-1-benzofuran-2-yl]methyl}amine]
- Ki [1]: 0.76 nM
- Emax (human 5-HT2C receptor): 100%
- EC50 (human 5-HT2C receptor): 6 nM

SMILES: CNCC1Cc2cc(F)cc(-c3cc(OC)ccc3C)c2O1 (racemic) [Example 456, (±)-{[5-fluoro-7-(5-methoxy-2-methylphenyl)-2,3-dihydro-1-benzofuran-2-yl]methyl}methylamine]
- Ki [1]: 4.1 nM
- Emax (human 5-HT2C receptor): 100%
- EC50 (human 5-HT2C receptor): 50 nM

SMILES: NCC1Cc2cc(Cl)cc(-c3ccccc3F)c2O1 (racemic) [Example 241, (±)-{[5-chloro-7-(2-fluorophenyl)-2,3-dihydro-1-benzofuran-2-yl]methyl}amine]
- Ki [1]: 0.3 nM
- Emax (human 5-HT2C receptor): 90%
- EC50 (human 5-HT2C receptor): 29 nM

SMILES: NCC1Cc2cccc(-c3ccc(Cl)cc3)c2O1 (single isomer, unassigned; (-)) [Example 78, (−)-1-[7-(4-chlorophenyl)-2,3-dihydro-1-benzofuran-2-yl]methanamine]
- Ki [1]: 41 nM
- EC50 (human 5-HT2C receptor): 161 nM
- 5-HT2C Function Emax (%) (human 5-HT2C receptor): 90%

SMILES: NCC1Cc2cc(Cl)cc(-c3cccc(F)c3F)c2O1 (single isomer, unassigned) [Example 246, (±)-{[5-chloro-7-(2,3-difluorophenyl)-2,3-dihydro-1-benzofuran-2-yl]methyl}amine]
- Ki [1]: 23 nM
- EC50 (human 5-HT2C receptor): 1490 nM

SMILES: COc1ccc(-c2cc(C)cc3c2OC(CN)C3)cc1 (racemic) [Example 293, (±)-{[7-(4-methoxyphenyl)-5-methyl-2,3-dihydro-1-benzofuran-2-yl]methyl}amine]
- Ki [1]: 3.8 nM
- Emax (human 5-HT2C receptor): 90%
- EC50 (human 5-HT2C receptor): 7 nM

SMILES: COc1cccc(-c2cc(F)cc3c2OC(CN)C3)c1OC (racemic) [Example 212, (±)-{[7-(2,3-dimethoxyphenyl)-5-fluoro-2,3-dihydro-1-benzofuran-2-yl]methyl}amine]
- Ki [1]: 2.4 nM
- Emax (human 5-HT2C receptor): 90%
- EC50 (human 5-HT2C receptor): 11 nM
